Laboratory results: the kinase profiling compilation of Christmann-Franck et al. (2016)
Where “and” joins values, the source holds several entries; their conditions need not be identical. Equal entries are not always repeated.

Legend:
Assay in all cases: radiometric filter-binding kinase assay, Kinase HotSpot
Details in all cases: compound 0.5 µM; ATP 10 µM
EPHA1 (human) = EPHA1 (human) (UniProt P21709)
DYRK1B (human) = DYRK1B (human) (UniProt Q9Y463)
GRK5 (human) = GRK5 (human) (UniProt P34947)
HIPK3 (human) = HIPK3 (human) (UniProt Q9H422)
MAP2K2 (human) = MAP2K2 (human) (UniProt P36507)
PRKCH (human) = PRKCH (human) (UniProt P24723)
BMX (human) = BMX (human) (UniProt P51813)
MAP3K5 (human) = MAP3K5 (human) (UniProt Q99683)
MLTK (human) = MLTK (human) (UniProt Q9NYL2)
CSNK1E (human) = CSNK1E (human) (UniProt P49674)
TXK (human) = TXK (human) (UniProt P42681)
FGR (human) = FGR (human) (UniProt P09769)
EPHA3 (human) = EPHA3 (human) (UniProt P29320)
NEK11 (human) = NEK11 (human) (UniProt Q8NG66)
EPHB1 (human) = EPHB1 (human) (UniProt P54762)
CDK3 CCNE1 (human) = CDK3 CCNE1 (human) (UniProt Q00526+P24864)
CSK (human) = CSK (human) (UniProt P41240)
CAMK1 (human) = CAMK1 (human) (UniProt Q14012)
GRK6 (human) = GRK6 (human) (UniProt P43250)
GRK6 (human), sequence (P43250 whole entry, looked up): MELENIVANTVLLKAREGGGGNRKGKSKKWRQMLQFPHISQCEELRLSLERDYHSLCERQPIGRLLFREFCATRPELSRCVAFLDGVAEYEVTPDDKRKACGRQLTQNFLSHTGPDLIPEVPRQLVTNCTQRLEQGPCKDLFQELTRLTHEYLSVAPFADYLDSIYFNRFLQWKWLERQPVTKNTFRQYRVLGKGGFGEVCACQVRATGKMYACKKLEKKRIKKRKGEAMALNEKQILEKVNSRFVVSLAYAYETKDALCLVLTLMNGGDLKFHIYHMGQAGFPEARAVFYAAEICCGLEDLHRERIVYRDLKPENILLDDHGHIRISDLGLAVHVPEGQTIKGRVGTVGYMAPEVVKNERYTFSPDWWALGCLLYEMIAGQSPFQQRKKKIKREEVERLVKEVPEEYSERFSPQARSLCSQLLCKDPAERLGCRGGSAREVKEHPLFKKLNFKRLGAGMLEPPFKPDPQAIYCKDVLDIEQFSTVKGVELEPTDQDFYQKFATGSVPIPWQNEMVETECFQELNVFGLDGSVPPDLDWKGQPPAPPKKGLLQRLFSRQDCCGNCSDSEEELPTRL

PNCK (human) = PNCK (human) (UniProt Q6P2M8)
CDK9 CCNK (human) = CDK9 CCNK (human) (UniProt O75909+P50750)
CDK9 CCNK (human), sequence (O75909 whole entry, looked up): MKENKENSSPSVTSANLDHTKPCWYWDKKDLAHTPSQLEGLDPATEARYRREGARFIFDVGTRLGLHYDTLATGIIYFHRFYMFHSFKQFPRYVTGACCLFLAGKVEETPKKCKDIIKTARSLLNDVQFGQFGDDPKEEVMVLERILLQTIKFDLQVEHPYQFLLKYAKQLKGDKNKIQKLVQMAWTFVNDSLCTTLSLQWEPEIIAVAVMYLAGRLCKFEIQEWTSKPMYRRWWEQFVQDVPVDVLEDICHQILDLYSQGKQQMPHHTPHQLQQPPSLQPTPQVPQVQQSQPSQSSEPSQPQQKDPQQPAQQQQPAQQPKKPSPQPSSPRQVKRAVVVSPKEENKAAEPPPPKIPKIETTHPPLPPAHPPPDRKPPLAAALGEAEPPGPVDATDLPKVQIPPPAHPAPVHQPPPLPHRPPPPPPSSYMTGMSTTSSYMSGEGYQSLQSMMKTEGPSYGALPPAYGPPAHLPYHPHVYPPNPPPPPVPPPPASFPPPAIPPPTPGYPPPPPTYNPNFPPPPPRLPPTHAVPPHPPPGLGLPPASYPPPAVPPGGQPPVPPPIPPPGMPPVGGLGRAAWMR
CDK9 CCNK (human), sequence (P50750 whole entry, looked up): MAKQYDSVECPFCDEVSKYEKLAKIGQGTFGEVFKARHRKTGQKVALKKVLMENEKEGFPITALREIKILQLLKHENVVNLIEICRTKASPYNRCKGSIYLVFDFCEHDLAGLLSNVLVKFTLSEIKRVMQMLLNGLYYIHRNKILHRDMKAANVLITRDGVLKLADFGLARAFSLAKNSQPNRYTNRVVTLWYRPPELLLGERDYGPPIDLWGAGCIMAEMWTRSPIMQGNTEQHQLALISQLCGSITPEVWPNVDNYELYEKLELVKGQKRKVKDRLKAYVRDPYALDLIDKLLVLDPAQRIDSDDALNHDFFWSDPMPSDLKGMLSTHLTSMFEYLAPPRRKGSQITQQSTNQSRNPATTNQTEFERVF

JAK2 JH1 JH2 (human) = JAK2 JH1 JH2 (human) (UniProt O60674)
DYRK2 (human) = DYRK2 (human) (UniProt Q92630)
INSR (human) = INSR (human) (UniProt P06213)
CSNK2A2 (human) = CSNK2A2 (human) (UniProt P19784)
CSNK2A2 (human), sequence (P19784 whole entry, looked up): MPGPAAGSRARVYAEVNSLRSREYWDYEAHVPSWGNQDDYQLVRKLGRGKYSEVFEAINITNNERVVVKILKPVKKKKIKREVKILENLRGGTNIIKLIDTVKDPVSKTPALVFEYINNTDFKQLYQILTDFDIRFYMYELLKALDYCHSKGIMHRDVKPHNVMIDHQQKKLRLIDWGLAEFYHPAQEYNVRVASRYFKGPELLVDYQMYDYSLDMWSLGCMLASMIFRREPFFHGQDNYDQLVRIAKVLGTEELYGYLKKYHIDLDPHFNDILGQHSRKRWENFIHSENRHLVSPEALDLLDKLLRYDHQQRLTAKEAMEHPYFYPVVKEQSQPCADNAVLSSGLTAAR

RPS6KA2 KD1 KD2 (human) = RPS6KA2 KD1 KD2 (human) (UniProt Q15349)
MST1R (human) = MST1R (human) (UniProt Q04912)
AURKC (human) = AURKC (human) (UniProt Q9UQB9)
AURKC (human), sequence (Q9UQB9 whole entry, looked up): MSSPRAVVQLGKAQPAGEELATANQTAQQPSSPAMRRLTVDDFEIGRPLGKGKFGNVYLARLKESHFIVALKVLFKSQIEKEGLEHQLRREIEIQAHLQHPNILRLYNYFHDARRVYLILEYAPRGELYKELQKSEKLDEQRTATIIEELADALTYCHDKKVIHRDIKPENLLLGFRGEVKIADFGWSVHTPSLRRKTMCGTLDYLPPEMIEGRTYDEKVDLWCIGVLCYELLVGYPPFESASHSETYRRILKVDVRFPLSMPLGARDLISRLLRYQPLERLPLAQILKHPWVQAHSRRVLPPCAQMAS

PRKG1 (human) = PRKG1 (human) (UniProt Q13976)
PRKCD (human) = PRKCD (human) (UniProt Q05655)
PRKCD (human), sequence (Q05655 whole entry, looked up): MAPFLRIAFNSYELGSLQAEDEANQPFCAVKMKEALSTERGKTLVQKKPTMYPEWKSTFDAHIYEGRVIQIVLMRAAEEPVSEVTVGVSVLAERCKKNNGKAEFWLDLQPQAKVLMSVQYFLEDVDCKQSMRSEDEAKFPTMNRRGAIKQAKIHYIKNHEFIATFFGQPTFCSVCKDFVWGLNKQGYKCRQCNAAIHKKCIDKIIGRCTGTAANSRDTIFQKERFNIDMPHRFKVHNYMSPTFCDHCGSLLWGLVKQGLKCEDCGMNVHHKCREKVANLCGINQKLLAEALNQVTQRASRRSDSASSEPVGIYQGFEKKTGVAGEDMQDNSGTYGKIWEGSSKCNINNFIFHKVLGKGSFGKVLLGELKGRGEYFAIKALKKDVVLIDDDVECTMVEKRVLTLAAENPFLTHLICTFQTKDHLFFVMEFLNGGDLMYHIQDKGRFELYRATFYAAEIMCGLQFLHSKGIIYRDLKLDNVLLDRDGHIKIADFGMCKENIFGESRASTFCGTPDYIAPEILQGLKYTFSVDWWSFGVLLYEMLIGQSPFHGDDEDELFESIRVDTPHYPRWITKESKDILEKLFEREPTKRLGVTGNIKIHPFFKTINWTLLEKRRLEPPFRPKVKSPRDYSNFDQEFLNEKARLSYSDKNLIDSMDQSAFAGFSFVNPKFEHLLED

DYRK1A (human) = DYRK1A (human) (UniProt Q13627)
MAPK11 (human) = MAPK11 (human) (UniProt Q15759)
STK33 (human) = STK33 (human) (UniProt Q9BYT3)
CDK2 CCNA2 (human) = CDK2 CCNA2 (human) (UniProt P24941+P20248)
VRK1 (human) = VRK1 (human) (UniProt Q99986)
VRK1 (human), sequence (Q99986 whole entry, looked up): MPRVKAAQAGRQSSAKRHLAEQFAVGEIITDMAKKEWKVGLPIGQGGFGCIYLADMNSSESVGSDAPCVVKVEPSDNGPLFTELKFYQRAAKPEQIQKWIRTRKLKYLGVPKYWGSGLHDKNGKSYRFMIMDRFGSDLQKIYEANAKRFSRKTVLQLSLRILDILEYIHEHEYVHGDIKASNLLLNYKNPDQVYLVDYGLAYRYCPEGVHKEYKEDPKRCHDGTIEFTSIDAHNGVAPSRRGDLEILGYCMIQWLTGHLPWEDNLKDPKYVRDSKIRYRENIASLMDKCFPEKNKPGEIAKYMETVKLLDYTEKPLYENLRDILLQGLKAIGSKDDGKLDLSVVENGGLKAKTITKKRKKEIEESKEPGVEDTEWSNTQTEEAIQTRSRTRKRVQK

SGK2 (human) = SGK2 (human) (UniProt Q9HBY8)
BRSK1 (human) = BRSK1 (human) (UniProt Q8TDC3)
BRSK1 (human), sequence (Q8TDC3 whole entry, looked up): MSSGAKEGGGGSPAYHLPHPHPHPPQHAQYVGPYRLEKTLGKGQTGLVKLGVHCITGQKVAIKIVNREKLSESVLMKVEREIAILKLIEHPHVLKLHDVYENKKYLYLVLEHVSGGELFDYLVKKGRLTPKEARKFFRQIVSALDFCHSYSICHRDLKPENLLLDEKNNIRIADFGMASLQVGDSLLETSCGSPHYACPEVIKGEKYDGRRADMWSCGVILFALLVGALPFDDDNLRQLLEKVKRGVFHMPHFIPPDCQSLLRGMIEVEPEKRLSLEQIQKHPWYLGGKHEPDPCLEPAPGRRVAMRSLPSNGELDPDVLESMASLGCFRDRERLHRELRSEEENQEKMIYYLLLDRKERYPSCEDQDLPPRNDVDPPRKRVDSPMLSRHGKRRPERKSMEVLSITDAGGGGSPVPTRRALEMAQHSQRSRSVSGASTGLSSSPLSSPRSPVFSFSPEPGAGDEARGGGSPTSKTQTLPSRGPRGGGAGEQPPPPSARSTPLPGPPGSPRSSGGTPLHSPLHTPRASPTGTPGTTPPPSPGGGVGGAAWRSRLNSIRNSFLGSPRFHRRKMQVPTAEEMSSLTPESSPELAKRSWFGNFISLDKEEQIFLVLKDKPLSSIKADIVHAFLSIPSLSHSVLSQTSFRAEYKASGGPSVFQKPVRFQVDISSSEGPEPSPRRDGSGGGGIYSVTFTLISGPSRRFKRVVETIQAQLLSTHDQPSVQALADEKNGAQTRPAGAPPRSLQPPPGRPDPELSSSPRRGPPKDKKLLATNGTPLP

NEK1 (human) = NEK1 (human) (UniProt Q96PY6)
CSNK1G1 (human) = CSNK1G1 (human) (UniProt Q9HCP0)
MYLK2 (human) = MYLK2 (human) (UniProt Q9H1R3)
FLT1 (human) = FLT1 (human) (UniProt P17948)
MAPK9 (human) = MAPK9 (human) (UniProt P45984)

EPHA1 (human), sequence (P21709 whole entry, looked up): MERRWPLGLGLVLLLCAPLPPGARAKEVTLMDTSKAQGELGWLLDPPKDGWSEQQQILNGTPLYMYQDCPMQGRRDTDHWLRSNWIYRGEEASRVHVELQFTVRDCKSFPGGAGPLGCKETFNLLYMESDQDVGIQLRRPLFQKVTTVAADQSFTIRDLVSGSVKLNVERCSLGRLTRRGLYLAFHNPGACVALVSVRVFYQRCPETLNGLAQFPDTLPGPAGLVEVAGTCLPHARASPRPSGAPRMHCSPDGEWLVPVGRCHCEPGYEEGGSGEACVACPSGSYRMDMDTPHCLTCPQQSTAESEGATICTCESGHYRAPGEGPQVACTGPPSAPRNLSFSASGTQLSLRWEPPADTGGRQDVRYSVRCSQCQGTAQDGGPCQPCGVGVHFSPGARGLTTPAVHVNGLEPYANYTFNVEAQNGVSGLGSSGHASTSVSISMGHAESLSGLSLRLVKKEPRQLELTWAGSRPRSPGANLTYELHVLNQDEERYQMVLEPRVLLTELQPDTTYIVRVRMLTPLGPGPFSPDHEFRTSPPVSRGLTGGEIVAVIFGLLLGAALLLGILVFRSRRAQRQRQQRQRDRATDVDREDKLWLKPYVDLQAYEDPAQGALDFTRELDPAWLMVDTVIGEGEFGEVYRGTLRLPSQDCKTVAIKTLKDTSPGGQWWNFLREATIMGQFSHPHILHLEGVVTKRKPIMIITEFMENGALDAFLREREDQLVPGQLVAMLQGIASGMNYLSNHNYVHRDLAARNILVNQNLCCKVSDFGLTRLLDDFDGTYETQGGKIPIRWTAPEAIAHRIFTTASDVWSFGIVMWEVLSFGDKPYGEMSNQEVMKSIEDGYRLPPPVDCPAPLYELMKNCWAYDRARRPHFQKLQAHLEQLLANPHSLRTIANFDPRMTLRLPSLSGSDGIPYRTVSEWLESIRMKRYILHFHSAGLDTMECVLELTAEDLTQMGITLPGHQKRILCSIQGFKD

COc1ccc(S(=O)(=O)N(CCO)c2ccccc2CN(C)C/C=C/c2ccc(Cl)cc2)cc1
residual activity (EPHA1 (human)): 101%
residual activity (DYRK1B (human)): 104%
residual activity (GRK5 (human)): 94.1%
residual activity (HIPK3 (human)): 104%
residual activity (MAP2K2 (human)): 100%
residual activity (PRKCH (human)): 95.9%
residual activity (BMX (human)): 101%
residual activity (MAP3K5 (human)): 93.7%
residual activity (MLTK (human)): 97%
residual activity (CSNK1E (human)): 105%
residual activity (TXK (human)): 95.6%
residual activity (FGR (human)): 99.8%
residual activity (EPHA3 (human)): 102%
residual activity (NEK11 (human)): 105%
residual activity (EPHB1 (human)): 93.3%
residual activity (CDK3 CCNE1 (human)): 103%
residual activity (CSK (human)): 95.6%
residual activity (CAMK1 (human)): 105%
residual activity (GRK6 (human)): 106%
residual activity (PNCK (human)): 99.8%
residual activity (CDK9 CCNK (human)): 99.1%
residual activity (JAK2 JH1 JH2 (human)): 98.4%
residual activity (DYRK2 (human)): 87.5%
residual activity (INSR (human)): 103%
residual activity (CSNK2A2 (human)): 93.7%
residual activity (RPS6KA2 KD1 KD2 (human)): 99.2%
residual activity (MST1R (human)): 95.4%
residual activity (AURKC (human)): 96.8%
residual activity (PRKG1 (human)): 93.2% and 94.7%
residual activity (PRKCD (human)): 94.3%
residual activity (DYRK1A (human)): 102%
residual activity (MAPK11 (human)): 103%
residual activity (STK33 (human)): 97.3%
residual activity (CDK2 CCNA2 (human)): 99.7%
residual activity (VRK1 (human)): 96.4%
residual activity (SGK2 (human)): 99.8%
residual activity (BRSK1 (human)): 98.4%
residual activity (NEK1 (human)): 104%
residual activity (CSNK1G1 (human)): 105%
residual activity (MYLK2 (human)): 97.8%
residual activity (FLT1 (human)): 94.7%
residual activity (MAPK9 (human)): 85.5%

CC(C)(C)c1cc(C=C(C#N)C#N)cc(Br)c1O
residual activity (EPHA1 (human)): 85.1%
residual activity (DYRK1B (human)): 103%
residual activity (GRK5 (human)): 108%
residual activity (HIPK3 (human)): 98.2%
residual activity (MAP2K2 (human)): 85.8%
residual activity (PRKCH (human)): 100%
residual activity (BMX (human)): 113%
residual activity (MAP3K5 (human)): 100%
residual activity (MLTK (human)): 91.2%
residual activity (CSNK1E (human)): 92.1%
residual activity (TXK (human)): 108%
residual activity (FGR (human)): 75.4%
residual activity (EPHA3 (human)): 102%
residual activity (NEK11 (human)): 87%
residual activity (EPHB1 (human)): 114%
residual activity (CDK3 CCNE1 (human)): 98.9%
residual activity (CSK (human)): 106%
residual activity (CAMK1 (human)): 97.5%
residual activity (GRK6 (human)): 94.6%
residual activity (PNCK (human)): 107%
residual activity (CDK9 CCNK (human)): 109%
residual activity (JAK2 JH1 JH2 (human)): 107%
residual activity (DYRK2 (human)): 104%
residual activity (INSR (human)): 105%
residual activity (CSNK2A2 (human)): 94.5%
residual activity (RPS6KA2 KD1 KD2 (human)): 98.9%
residual activity (MST1R (human)): 105%
residual activity (AURKC (human)): 87.6%
residual activity (PRKG1 (human)): 103% and 107%
residual activity (PRKCD (human)): 83%
residual activity (DYRK1A (human)): 95.4%
residual activity (MAPK11 (human)): 100%
residual activity (STK33 (human)): 91.1%
residual activity (CDK2 CCNA2 (human)): 90.7%
residual activity (VRK1 (human)): 86.4%
residual activity (SGK2 (human)): 120%
residual activity (BRSK1 (human)): 94%
residual activity (NEK1 (human)): 97.7%
residual activity (CSNK1G1 (human)): 106%
residual activity (MYLK2 (human)): 99.3%
residual activity (FLT1 (human)): 92.5%
residual activity (MAPK9 (human)): 103%

O=C(c1cc2cc(O)ccc2[nH]1)c1cc2cc(O)ccc2[nH]1
residual activity (EPHA1 (human)): 81.1%
residual activity (DYRK1B (human)): 92%
residual activity (GRK5 (human)): 104%
residual activity (HIPK3 (human)): 97.3%
residual activity (MAP2K2 (human)): 98.8%
residual activity (PRKCH (human)): 76.3%
residual activity (BMX (human)): 80.6%
residual activity (MAP3K5 (human)): 89.6%
residual activity (MLTK (human)): 34.3%
residual activity (CSNK1E (human)): 88.4%
residual activity (TXK (human)): 74.9%
residual activity (FGR (human)): 12.7%
residual activity (EPHA3 (human)): 101%
residual activity (NEK11 (human)): 96.7%
residual activity (EPHB1 (human)): 97%
residual activity (CDK3 CCNE1 (human)): 85.2%
residual activity (CSK (human)): 106%
residual activity (CAMK1 (human)): 97.4%
residual activity (GRK6 (human)): 102%
residual activity (PNCK (human)): 105%
residual activity (CDK9 CCNK (human)): 49.5%
residual activity (JAK2 JH1 JH2 (human)): 95.6%
residual activity (DYRK2 (human)): 89%
residual activity (INSR (human)): 93.8%
residual activity (CSNK2A2 (human)): 78.8%
residual activity (RPS6KA2 KD1 KD2 (human)): 22.2%
residual activity (MST1R (human)): 90.4%
residual activity (AURKC (human)): 83.2%
residual activity (PRKG1 (human)): 84.3% and 90%
residual activity (PRKCD (human)): 89.7%
residual activity (DYRK1A (human)): 103%
residual activity (MAPK11 (human)): 95.7%
residual activity (STK33 (human)): 77.5%
residual activity (CDK2 CCNA2 (human)): 61.5%
residual activity (VRK1 (human)): 85.3%
residual activity (SGK2 (human)): 94.3%
residual activity (BRSK1 (human)): 53.6%
residual activity (NEK1 (human)): 93.4%
residual activity (CSNK1G1 (human)): 93.1%
residual activity (MYLK2 (human)): 21.1%
residual activity (FLT1 (human)): 81.3%
residual activity (MAPK9 (human)): 116%

COc1cc2ncnc(Nc3ccc(OCc4ccccc4)cc3)c2cc1OC
residual activity (EPHA1 (human)): 102%
residual activity (DYRK1B (human)): 104%
residual activity (GRK5 (human)): 105%
residual activity (HIPK3 (human)): 85.3%
residual activity (MAP2K2 (human)): 98.5%
residual activity (PRKCH (human)): 97.2%
residual activity (BMX (human)): 89.7%
residual activity (MAP3K5 (human)): 97.8%
residual activity (MLTK (human)): 96.2%
residual activity (CSNK1E (human)): 98.4%
residual activity (TXK (human)): 99.4%
residual activity (FGR (human)): 72.2%
residual activity (EPHA3 (human)): 98.1%
residual activity (NEK11 (human)): 90.4%
residual activity (EPHB1 (human)): 101%
residual activity (CDK3 CCNE1 (human)): 96.3%
residual activity (CSK (human)): 72.5%
residual activity (CAMK1 (human)): 98.4%
residual activity (GRK6 (human)): 104%
residual activity (PNCK (human)): 99%
residual activity (CDK9 CCNK (human)): 103%
residual activity (JAK2 JH1 JH2 (human)): 94.3%
residual activity (DYRK2 (human)): 111%
residual activity (INSR (human)): 100%
residual activity (CSNK2A2 (human)): 95.3%
residual activity (RPS6KA2 KD1 KD2 (human)): 100%
residual activity (MST1R (human)): 106%
residual activity (AURKC (human)): 84.8%
residual activity (PRKG1 (human)): 90.3% and 99.3%
residual activity (PRKCD (human)): 101%
residual activity (DYRK1A (human)): 105%
residual activity (MAPK11 (human)): 96.9%
residual activity (STK33 (human)): 109%
residual activity (CDK2 CCNA2 (human)): 100%
residual activity (VRK1 (human)): 89%
residual activity (SGK2 (human)): 100%
residual activity (BRSK1 (human)): 103%
residual activity (NEK1 (human)): 104%
residual activity (CSNK1G1 (human)): 90.6%
residual activity (MYLK2 (human)): 97.5%
residual activity (FLT1 (human)): 96%
residual activity (MAPK9 (human)): 106%
